Assay results: patent US20140194517A1, “Treatment of Graft-Versus-Host Disease Disorders using RAR Antagonists” (Io Therapeutics, Inc., priority 2013, published 2014)

Tested on: B10.BR recipients (acute GVHD)
Experiment: Acute GVHD after allogeneic BMT: lethally irradiated B10.BR recipients given B6 BM and splenocytes
Format: in vivo, mice
Conditions: 15×10^6 splenocytes, ATRA 200 μg/mouse IP daily day 0 to 28
Method: FIG. 3. Heightened RA levels and RAR-α signaling exacerbates GVHD. Survival and weight curves of lethally irradiated B10.BR recipients (n=8/group) injected with 10^7 BM and 15×10^6 splenocytes from B6 mice. Subgroups were treated with vehicle (filled circles) or all trans retinoic acid (ATRA) (open circles) p=0.013.
FIG. 4. Heightened RA levels and RAR-α signaling exacerbates GVHD. Survival and weight curves of lethally irradiated B10.BR recipients (n=8/group) injected with 10^7 BM and 5×10^6 splenocytes from B6 mice. Subgroups were treated with vehicle (filled circles) or ATRA (open circles) p=0.037.
To determine whether heightened vitamin A signaling would augment acute GVHD, B10.BR recipients given BM with or without 15×10^6 splenocytes from B6 mice were given ATRA (200 μg/mouse IP) daily from day 0 to 28. […] These findings indicate heightened vitamin A levels and RAR signaling can enhance GVHD lethality.

Question: `CC1=C(/C=C/C(C)=C/C=C/C(C)=C/C(=O)O)C(C)(C)CCC1` [ATRA, all trans retinoic acid] was tested. Which GVHD lethality (p=0.013 vs vehicle) did it give?
Answer: Its GVHD lethality is “significant increase”.

Question: And the “median survival time (MST)” value (vehicle 21.5 days)?
Answer: The value was 9 days.

Question: What about the weight loss (vs vehicle) of the same compound?
Answer: The weight loss was “accelerated weight loss”.
